What all share (assay): NCI tumour cell line growth inhibition, 48 h
The test system of assay [1] is 786-0 renal.
In assay [2] the test system is EKVX NSCLC.
Assay [3] relates to HT29 colon.
The subject of assay [4] is MALME-3M melanoma.
The subject of assay [5] is MDA-MB-435.
Assay [6] has as its system NCI-H226 lung.
Assay [7] deals with NCI/ADR-RES ovarian.
For assay [8], the system named is TK-10 renal.
The test system of assay [9] is UACC-257 melanoma.
The subject of assay [10] is UACC-62 melanoma.

Each structure is given as a SMILES string.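 A five-concentration, 48-hour dose response in 96-well plates underlies each endpoint, interpolated linearly between surrounding concentrations. GI50 = concentration required for 50% inhibition of growth. TGI: total growth inhibition.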 Where only a bound is given, the exact number is not on record here.

Regarding `COc1ccc(C2CC(c3cccc(Nc4ccnc5cc(Cl)ccc45)c3)=NN2C=O)cc1` (stereo unspecified), the GI50 was 0.665 µM in assay [1]; 1.19 µM in [2]; 0.349 µM in [3]; 0.142 µM in assay [5]; 39.3 µM in assay [6]; 0.379 µM in assay [7]. Moreover, the GI50 was 0.882 µM in assay [8], 0.677 µM in assay [9] and 0.532 µM in assay [10]. Further, the TGI in assay [1] was 30.8 µM; in assay [2], above 100 µM; in [3] it was 1.54 µM; in assay [4], above 100 µM; in assay [5] it was 0.809 µM; in assay [6] it was above 100 µM. For the same molecule, the TGI turned out to be 4.92 µM in [7], 7.86 µM in assay [8], 34.8 µM in assay [9] and 54.8 µM in [10].

Turning to `O=C(Cc1ccc(/C=C/C(=O)c2ncc[nH]2)cc1)Nc1ccc(F)cc1`, the GI50 is 1.37 µM in assay [1]; 7.46 µM in [2]; 1.15 µM in assay [3]; 7.86 µM in [4]; 4.07 µM in assay [5]; 9.85 µM in [6]. The GI50 in assay [7] is 7.18 µM; in assay [8], 7.89 µM; in assay [9], 8.67 µM; in assay [10] it was 5.92 µM. In addition, the TGI in assay [1] is 5.81 µM; in assay [2], 32.9 µM; in [3], 4.45 µM; in assay [4], 22.1 µM; in [5], 20.1 µM; in assay [6] it was above 33.3 µM. For the same molecule, the TGI in [7] is above 33.3 µM; in assay [8] it was 18.4 µM; in assay [9] it was 30.6 µM; in assay [10], 22.6 µM.

As for `O=c1[nH]c2ccccc2c2ccccc12`, the GI50 in assay [1] was above 100 µM; in [2] it was 92.9 µM; in assay [3] it was above 100 µM; in assay [4], above 100 µM; in assay [5] it was above 100 µM; in [6], above 100 µM. The GI50 in [7], in assay [8] and in [10] was above 100 µM throughout. For the same molecule, the TGI in assay [1], in assay [2], in assay [3], in [4], in [5] and in [6] was above 100 µM throughout. Moreover, the TGI in assay [7], in assay [8] and in assay [10] was above 100 µM in each case.

With `COc1ccc2c(c1)/C(=C\c1c(-c3cc(OC)ccc3OC)nc3sc(C)cn13)C(=O)N2C`, the GI50 in [1] is 31.1 µM; in assay [2], 61.1 µM; in assay [4] it was above 100 µM; in assay [5], 26.5 µM; in [6] it was 30.9 µM; in [7], 27.4 µM. Also, the GI50 in [8] was 48.7 µM; in assay [9] it was 23.5 µM; in assay [10] it was 17.3 µM. Also, the TGI was above 100 µM in [1]; above 100 µM in assay [2]; above 100 µM in [4]; 79.9 µM in assay [5]; above 100 µM in assay [6]; above 100 µM in assay [7]. Further, the TGI was above 100 µM in assay [8], 45.9 µM in assay [9] and 44.5 µM in assay [10].

Turning to `CC(N)C(Cc1ccc(Cl)cc1)c1ccc(Cl)cc1` (stereo unspecified), the GI50 in assay [1] was 10.2 µM; in [2] it was 9.22 µM; in [3], 3.29 µM; in assay [4] it was 8.17 µM; in [5], 8.2 µM; in [6], 17.5 µM. The GI50 in assay [7] is 13.4 µM; in assay [8], 12.6 µM; in assay [10], 6.01 µM. The TGI is 24.3 µM in assay [1]; 22.4 µM in assay [2]; 13.6 µM in assay [3]; 22.1 µM in assay [4]; 20.7 µM in assay [5]; 39.3 µM in [6]. Also, the TGI in assay [7] was determined as 36.9 µM; in [8], 26.2 µM; in assay [10] it was 19.6 µM.

For the molecule `O=C(Oc1cccc2cccnc12)c1cc2c(cc1Cl)SC(N(c1ccc(F)cc1)S(=O)(=O)c1ccc(Br)s1)=NS2(=O)=O`, the GI50 was above 100 µM in [1]; 22.5 µM in [2]; 41 µM in [3]; 18.8 µM in assay [4]; 26 µM in assay [5]; 66.4 µM in [6]. The GI50 is 18.2 µM in assay [7], 38.1 µM in assay [8] and 32.6 µM in [10]. Further, the TGI in assay [1] was above 100 µM; in assay [2], 64.1 µM; in assay [3] it was above 100 µM; in assay [4] it was 49.6 µM; in assay [5] it was above 100 µM; in [6], above 100 µM. For the same molecule, the TGI is 66.4 µM in assay [7], above 100 µM in assay [8] and above 100 µM in [10].

(Values after PubChem BioAssay (NCI).)
